Measurements taken from patent publication US7569225B2, “Immunogenic lipopeptides comprising T-helper and B-cell epitopes” (The Council of The Queensland Institute of Medical Research, priority 2002, dated 2009).
Where “and” joins values, the source holds several entries; their conditions need not be identical. Identical values can stand only once. Entries after “also recorded” stand apart in the source; their conditions may differ. Like-named read-outs stand apart in the source and are kept apart here. Where no end group is shown, it is not given here. Pam3Cys = lipoamino acid of Formula (III) conjugated to the N-terminus; Pam2Cys = lipid of Formula (II)

Key:
[1] = Solubility of peptides and lipopeptides in saline (visual inspection); format: physicochemical; conditions: for solubility / appearance of solution: visual inspection
Description: FIG. 2 is a photographic representation showing the solubilities of lipopeptides designated [Th]-Lys(Pam2Cys-Ser-Ser)-[B] (left) and Pam2Cys-Ser-Ser-[Th]-[B] (right) in FIG. 1, wherein the polypeptide moieties have the amino acid sequences set forth in SEQ ID NO: 7 and SEQ ID NO: 5, respectively. Both solutions are approximately 1 mg/ml lipopeptide in saline solution.
Enhanced solubility was most evident in those cases where lipid was attached between the two epitopes at the approximate centre of the molecule. The lipopeptides designated [Th]-Lys(Pam2Cys)-[B] and [Th]-Lys(Pam3Cys)-[B] were soluble in saline at concentrations of at least 8 mg/ml (no higher concentrations were examined), whereas constructs in which lipid was attached to the N-terminus of the sequence formed opalescent solutions at concentrations as low as 0.25 mg/ml.
We considered that the insoluble nature of this construct would prevent it from being considered as a viable proposition for manufacture as a vaccine.

female mice = format: in vivo, BALB/c mice; conditions: for Pregnancy status (No. of animals per group that dropped litters): fertility experiment initiated two weeks after second dose; for Incidence of pregnancy 13 weeks after 2nd Dose / Incidence of pregnancy 2 weeks after 2nd Dose: 20 nmoles subcutaneously; for Incidence of pregnancy 13 weeks after 2nd Dose: animals per group of five; for Incidence of pregnancy 2 weeks after 2nd Dose: animals that dropped litters per group of five
D1 cells = format: cell-based, BALB/c mouse
M1 GAS strain = assay: Survival of inoculated mice after intranasal challenge with GAS; format: in vivo, Group A Streptococcus; conditions: Quackenbush mice, challenge two weeks after last dose
Description: Two weeks after the last dose of antigen, mice were challenged intranasally with M1 GAS strain and survival determined at various time points afterwards.
Female outbred Quackenbush mice 4-6 weeks old (15/group) were inoculated intranasally with 60 μg of peptide-based vaccine in a total volume of 30 μl PBS. Mice received three doses of vaccine at 21-day intervals. […] Two weeks after the last dose of antigen, mice were challenged intranasally with M1 GAS strain and survival determined at various time points afterwards.

J14 [2] = conditions: Quackenbush mice, 60 μg intranasally, three doses at 21-day intervals, seven days after final dose; versus control groups
Description: The lipoamino acid moiety Pam2Cys-Ser-Ser was added to an internal lysine positioned between the T-helper epitope and the B-cell epitope in all lipopeptides tested. In the lipopeptide [Th]-Lys(Pam2Cys-Ser-Ser)-[J14], this is the only lipid moiety, whereas in the lipopeptide Pam2Cys-Ser-Ser-[Th]-Lys(Pam2Cys-Ser-Ser)-[J14], an additional lipoamino acid moiety Pam2Cys-Ser-Ser was added to the N-terminal amino group of the T-helper epitope. […] Seven days following the final dose mice were bled from the tail vein and J14-specific serum IgG was determined.
ELISA assays were carried out on serum samples as described essentially by Ghosh et al., Int Immun. […] The titres of antibody are expressed as the reciprocal of the highest dilution of serum to achieve an OD of 0.2, which represents approximately 5 times the background binding in the absence of antibody. The isotype of antibodies specific for LHRH or J14 was determined using rabbit antisera directed against mouse IgM, IgG1, IgG2a, IgG2b, IgG3 or IgA (ICN Pharmaceuticals Inc., Costa Mesa, Calif.) as previously described by Ghosh et al., Int Immun.
Female outbred Quackenbush mice 4-6 weeks old (15/group) were inoculated intranasally with 60 μg of peptide-based vaccine in a total volume of 30 μl PBS. […] Seven days following the final dose mice were bled from the tail vein and J14-specific serum IgG was determined.

J14 [3] = conditions: Quackenbush mice, 60 μg intranasally, three doses, eight days after final dose; versus control groups
Description: Female outbred Quackenbush mice 4-6 weeks old (15/group) were inoculated intranasally with 60 μg of each peptide-based vaccine in a total volume of 30 μl PBS. Mice received three doses of vaccine at 21-day intervals. Eight days following the final dose saliva was collected from individual mice and the average J14-specific salivary IgA antibody titres were determined by standard ELISA.
Female outbred Quackenbush mice 4-6 weeks old (15/group) were inoculated intranasally with 60 μg of peptide-based vaccine in a total volume of 30 μl PBS. Mice received three doses of vaccine at 21-day intervals. […] Eight days following the final dose saliva was collected from individual mice and the average J14-specific salivary IgA antibody titres were determined by standard ELISA.

J14 [4] = conditions: Quackenbush mice, 60 μg intranasally, three doses, 6 days after last dose
Description: Female outbred Quackenbush mice 4-6 weeks old (15/group) were inoculated intranasally with 60 μg of peptide-based vaccine in a total volume of 30 μl PBS. Mice received three doses of vaccine at 21-day intervals. Fecal IgA was determined 6 days following the last dose of antigen.

CCCCCCCCCCCCCCCC(=O)OCC(CSC[C@H](N)C(=O)N[C@@H](CO)C(=O)N[C@@H](CO)C(=O)NCC(=O)N[C@@H](C)C(=O)N[C@@H](CC(C)C)C(=O)N[C@@H](CC(N)=O)C(=O)N[C@@H](CC(N)=O)C(=O)N[C@@H](CCCNC(=N)N)C(=O)N[C@@H](Cc1ccccc1)C(=O)N[C@@H](CCC(N)=O)C(=O)N[C@H](C(=O)N[C@@H](CCCCN)C(=O)NCC(=O)N[C@H](C(=O)N[C@@H](CCC(=O)O)C(=O)N[C@@H](CC(C)C)C(=O)N[C@@H](CCCCN)C(=O)N[C@@H](CO)C(=O)N[C@@H](CCC(=O)O)C(=O)N[C@@H](Cc1c[nH]cn1)C(=O)N[C@@H](Cc1c[nH]c2ccccc12)C(=O)N[C@@H](CO)C(=O)N[C@@H](Cc1ccc(O)cc1)C(=O)NCC(=O)N[C@@H](CC(C)C)C(=O)N[C@@H](CCCNC(=N)N)C(=O)N1CCC[C@H]1C(=O)NCC(=O)O)C(C)C)[C@@H](C)CC)OC(=O)CCCCCCCCCCCCCCC (stereo partly drawn) [Pam2Cys-Ser-Ser-[Th]—[B]]
solubility / appearance of solution [1]: opalescent

CCCCCCCCCCCCCCCC(=O)OCC(CSC[C@H](N)C(=O)NCCCC[C@H](NC(=O)[C@H](CO)NC(=O)[C@H](CCCCN)NC(=O)[C@H](CC(C)C)NC(=O)[C@H](CCC(=O)O)NC(=O)[C@@H](NC(=O)CNC(=O)[C@H](CCCCN)NC(=O)[C@@H](NC(=O)[C@H](CCC(N)=O)NC(=O)[C@H](Cc1ccccc1)NC(=O)[C@H](CCCNC(=N)N)NC(=O)[C@H](CC(N)=O)NC(=O)[C@H](CC(N)=O)NC(=O)[C@H](CC(C)C)NC(=O)[C@H](C)NC(=O)CN)[C@@H](C)CC)C(C)C)C(=O)N[C@@H](CCC(=O)O)C(=O)N[C@@H](Cc1c[nH]cn1)C(=O)N[C@@H](Cc1c[nH]c2ccccc12)C(=O)N[C@@H](CO)C(=O)N[C@@H](Cc1ccc(O)cc1)C(=O)NCC(=O)N[C@@H](CC(C)C)C(=O)N[C@@H](CCCNC(=N)N)C(=O)N1CCC[C@H]1C(=O)NCC(=O)O)OC(=O)CCCCCCCCCCCCCCC (some centres unmarked) [[Th]-Lys(Pam2Cys)-[B]]
solubility ([1]; no higher concentrations were examined, read-out: soluble in saline at concentrations of at least): ≥ 8000 µg/mL

CCCCCCCCCCCCCCCC(=O)OCC(CSC[C@H](N)C(=O)N[C@@H](CO)C(=O)N[C@@H](CO)C(=O)NCCCC[C@H](NC(=O)[C@H](CO)NC(=O)[C@H](CCCCN)NC(=O)[C@H](CC(C)C)NC(=O)[C@H](CCC(=O)O)NC(=O)[C@@H](NC(=O)CNC(=O)[C@H](CCCCN)NC(=O)[C@@H](NC(=O)[C@H](CCC(N)=O)NC(=O)[C@H](Cc1ccccc1)NC(=O)[C@H](CCCNC(=N)N)NC(=O)[C@H](CC(N)=O)NC(=O)[C@H](CC(N)=O)NC(=O)[C@H](CC(C)C)NC(=O)[C@H](C)NC(=O)CN)[C@@H](C)CC)C(C)C)C(=O)N[C@@H](CCC(=O)O)C(=O)N[C@@H](Cc1c[nH]cn1)C(=O)N[C@@H](Cc1c[nH]c2ccccc12)C(=O)N[C@@H](CO)C(=O)N[C@@H](Cc1ccc(O)cc1)C(=O)NCC(=O)N[C@@H](CC(C)C)C(=O)N[C@@H](CCCNC(=N)N)C(=O)N1CCC[C@H]1C(=O)NCC(=O)O)OC(=O)CCCCCCCCCCCCCCC (stereo partly drawn) [[Th]-Lys(Pam2Cys-Ser-Ser)-[B]]
solubility / appearance of solution [1]: clear; also recorded: higher solubility

GALNNRFQIKGVELKSEHWSYGLRPG [[Th]—[B]]
Pregnancy status (No. of animals per group that dropped litters) (female mice; 1 nmole, subcutaneous): 3/5
Pregnancy status (No. of animals per group that dropped litters) (female mice; 10 nmole, subcutaneous): 1/5
Incidence of pregnancy 13 weeks after 2nd Dose (female mice): 0/5
Incidence of pregnancy 13 weeks after 2nd Dose (female mice; listed as [Th]-[B]): still infertile
Incidence of pregnancy 2 weeks after 2nd Dose (female mice): 0/5
Incidence of pregnancy 2 weeks after 2nd Dose (female mice; listed as [Th]-[B]): None of the mice
Pregnancy No. animals per group that dropped litters (female mice; subcutaneous, initiated two weeks after second dose): 0/5

GALNNRFQIKGVELKSKEHWSYGLRPG [[Th]-Lys-[B]]
Incidence of pregnancy 13 weeks after 2nd Dose (female mice): still infertile and 0/5
Incidence of pregnancy 2 weeks after 2nd Dose (female mice): None of the mice and 0/5
D1 maturation rate (D1 cells): about 26%

Pam2Cys-[Th]—[B]: lipid of Formula (II) conjugated to the N-terminus of peptide [Th]-[B] (SEQ ID NO: 5) (Pam2Cys-GALNNRFQIKGVELKSEHWSYGLRPG)
Incidence of pregnancy 13 weeks after 2nd Dose (female mice): 3/5
Incidence of pregnancy 2 weeks after 2nd Dose (female mice): 2/5
Incidence of pregnancy 2 weeks after 2nd Dose (female mice; listed as Pam2Cys-[Th]-[B]): two animals
ability to cause maturation of DC / up-regulate MHC class II expression (FIG. 5) (D1 cells): least effective

Pam3Cys-Ser-Ser-[Th]—[B]: lipoamino acid of Formula (III) conjugated to the N-terminus of peptide [Th]-[B] (SEQ ID NO: 5) (Pam3Cys-SSGALNNRFQIKGVELKSEHWSYGLRPG)
solubility / appearance of solution [1]: so insoluble that it could not be purified by RP-HPLC
Incidence of pregnancy 13 weeks after 2nd Dose (female mice): 0/5
Incidence of pregnancy 2 weeks after 2nd Dose (female mice): 2/5
Incidence of pregnancy 2 weeks after 2nd Dose (female mice; listed as Pam3Cys-Ser-Ser-[Th]-[B]): two animals

[Th]-Lys(Pam2Cys-Ser-Ser)-[J14]: P25-Lys-J14 (SEQ ID NO: 106) with Pam2Cys-Ser-Ser on the internal lysine between the epitopes (KLIPNASLIENCTKAELKKQAEDKVKASREAKKQVEKALEQLEDKVK; not fully specified (residue 18); also: Pam2Cys-Ser-Ser on internal lysine between the epitopes (K18 or K19))
survival following intranasal challenge with GAS (FIG. 16) (M1 GAS strain): best survival
J14-specific serum IgG titres (FIG. 12) (J14 [2]): significantly higher (P<0.05) serum IgG titres
J14-specific salivary IgA titres (FIG. 14) (J14 [3]): far superior
faecal IgA titres (FIG. 15) (J14 [4]): significant (P<0.05) faecal IgA titres

[Th]-[J14]: non-lipidated peptide of T-helper epitope P25 (SEQ ID NO: 24) and J14 (SEQ ID NO: 101) (KLIPNASLIENCTKAELKQAEDKVKASREAKKQVEKALEQLEDKVK)
survival following intranasal challenge with GAS (FIG. 16) (M1 GAS strain): some protective immunity
